Data: patent US20140303256A1 (UNIVERSITY INDUSTRY COOPERATION GROUP OF KYUNG HEE …, priority 2011, published 2014)

Experiments:
NMDA receptor = details: previous report; cited from earlier work
CCL-3 = CCL-3 chemoattractant expression by RT-PCR after spinal cord injury; type: in vivo, mouse; details: 1~5 days after spinal cord injury
Procedure: (§1) Adult male C57BL/6 mice (20˜30 g) were anaesthetized with chloral hydrate (500 mg/kg) and T8˜T10 were exposed. The exposed T9 was subjected to contusion injury (by dropping a weight at the impact strength of 40 kd) using PSI (Precision Systems and Instrumentation) impactor. After confirming that a certain damage was given within the error range based on the data of injury level, the incision sites were sealed. After disinfecting the incision sites, the mice were raised in cages (2 mice/cage). Urination was induced by massaging the bladder three times a day. […] Louis, Mo.) dissolved in saline was immediately administered into injured mice via intraperitoneal injection (200 mg/kg). Saline was administered for the control. The administration was performed once a day and continued for 2 weeks. RNA was extracted by using TRIZOL Reagent (Invitrogen) according to manufacturer's manual. Total reaction mixture (20 μl) containing 1 μg of RNA was prepared, followed by RT-PCR using MMLV reverse transcriptase (Invitrogen).

ZO-1 [1] = assay: ZO-1 (tight junction protein) amount by western blot after spinal cord injury; type: in vivo, mouse; details: vs saline
Procedure: Adult male C57BL/6 mice (20˜30 g) were anaesthetized with chloral hydrate (500 mg/kg) and T8˜T10 were exposed. The exposed T9 was subjected to contusion injury (by dropping a weight at the impact strength of 40 kd) using PSI (Precision Systems and Instrumentation) impactor. After confirming that a certain damage was given within the error range based on the data of injury level, the incision sites were sealed. After disinfecting the incision sites, the mice were raised in cages (2 mice/cage). Urination was induced by massaging the bladder three times a day. […] Louis, Mo.) dissolved in saline was immediately administered into injured mice via intraperitoneal injection (200 mg/kg). Saline was administered for the control. The administration was performed once a day and continued for 2 weeks. […] The protein was transferred onto nitrocellulose membrane, followed by western blot according to the protocol described in each antibody data sheet.

MMP-2 [2] = assay: MMP-2 expression by RT-PCR in spinal cord tissue after spinal cord injury; type: in vivo; details: mouse treated with fluoxetine (200 mg/kg i.p. once a day) after spinal cord injury vs saline
Procedure: (§2) Adult male C57BL/6 mice (20˜30 g) were anaesthetized with chloral hydrate (500 mg/kg) and T8˜T10 were exposed. The exposed T9 was subjected to contusion injury (by dropping a weight at the impact strength of 40 kd) using PSI (Precision Systems and Instrumentation) impactor. After confirming that a certain damage was given within the error range based on the data of injury level, the incision sites were sealed. After disinfecting the incision sites, the mice were raised in cages (2 mice/cage). Urination was induced by massaging the bladder three times a day. […] Louis, Mo.) dissolved in saline was immediately administered into injured mice via intraperitoneal injection (200 mg/kg). Saline was administered for the control. The administration was performed once a day and continued for 2 weeks. […] Spinal nerve was cut, followed by embedding in OCT compound, which was sectioned by using a cryostat. The spinal cord tissue for the extraction of RNA and protein proceeded to perfusion with PBS. Then, the spinal cord tissue was cut 0.8 cm from the injured area, which was stored in liquid nitrogen at −80° C. until use. RNA was extracted by using TRIZOL Reagent (Invitrogen) according to manufacturer's manual. Total reaction mixture (20 μl) containing 1 μg of RNA was prepared, followed by RT-PCR using MMLV reverse transcriptase (Invitrogen). […]

MMP-12 = MMP-12 expression by RT-PCR in spinal cord tissue after spinal cord injury; type: in vivo; details: mouse treated with fluoxetine (200 mg/kg i.p. once a day) after spinal cord injury vs saline
Procedure: as §2

MMP-2 [3] = assay: MMP-2 activation by gelatin zymography of spinal cord tissue after spinal cord injury; type: in vivo, mouse; details: spinal cord tissue 1 day (peak time) after spinal cord injury, vs saline
Procedure: (§3) Adult male C57BL/6 mice (20˜30 g) were anaesthetized with chloral hydrate (500 mg/kg) and T8˜T10 were exposed. The exposed T9 was subjected to contusion injury (by dropping a weight at the impact strength of 40 kd) using PSI (Precision Systems and Instrumentation) impactor. […] Louis, Mo.) dissolved in saline was immediately administered into injured mice via intraperitoneal injection (200 mg/kg). Saline was administered for the control. The administration was performed once a day and continued for 2 weeks. […] Then, the gel was loaded in renaturing buffer (2.5% Triton X-100), followed by incubation at room temperature for 30 minutes. The gel was loaded in developing buffer (50 mM Tris-HCl, pH 8.5, 0.2 M NaCl, 5 mM CaCl2, 0.02% Brii35), which stood at 37° C. for 24 hours. […] At this time, the clear band on the zymogram gel indicated gelatinase activity.

macrophages = assay: Macrophage infiltration into spinal cord by flow cytometry; type: in vivo, mouse; details: flow cytometry (high CD45 and CD11b), 1 and 5 days after spinal cord injury, vs saline
Procedure: (§4) Adult male C57BL/6 mice (20˜30 g) were anaesthetized with chloral hydrate (500 mg/kg) and T8˜T10 were exposed. The exposed T9 was subjected to contusion injury (by dropping a weight at the impact strength of 40 kd) using PSI (Precision Systems and Instrumentation) impactor. After confirming that a certain damage was given within the error range based on the data of injury level, the incision sites were sealed. After disinfecting the incision sites, the mice were raised in cages (2 mice/cage). Urination was induced by massaging the bladder three times a day. […] Louis, Mo.) dissolved in saline was immediately administered into injured mice via intraperitoneal injection (200 mg/kg). Saline was administered for the control. The administration was performed once a day and continued for 2 weeks. The spinal cord tissue was extracted 1 and 5 days after spinal cord injury, which was added into PBS. The spinal cord tissue in PBS was mechanically disrupted with a dounce homogenizer, followed by centrifugation at 1,100 rpm for 10 minutes. The obtained pellet was resuspended in FBS containing buffer, which was centrifuged at 3,000 rpm for 7 minutes. […] After washing with FBS containing buffer, neutrophils and macrophages infiltrated into spinal cord 1 and 5 days after spinal cord injury were measured by using Becton Dickinson LSR Benchtop Flow Cytometer (BD Biosciences). […]

[4] = maximal electroshock convulsion test in mouse; Leander 1992; cited from earlier work
MMP-9 [5] = assay: MMP-9 expression by RT-PCR in spinal cord tissue after spinal cord injury; type: in vivo; details: mouse treated with fluoxetine (200 mg/kg i.p. once a day) after spinal cord injury vs saline
Procedure: as §2

CCL-4 = CCL-4 chemoattractant expression by RT-PCR after spinal cord injury; type: in vivo, mouse; details: 1~5 days after spinal cord injury
Procedure: as §1

spinal cord injury mouse = assay: Animal behavioral test (BBB test), recovery of exercise function after spinal cord injury; type: in vivo
Procedure: Adult male C57BL/6 mice (20˜30 g) were anaesthetized with chloral hydrate (500 mg/kg) and T8˜T10 were exposed. The exposed T9 was subjected to contusion injury (by dropping a weight at the impact strength of 40 kd) using PSI (Precision Systems and Instrumentation) impactor. After confirming that a certain damage was given within the error range based on the data of injury level, the incision sites were sealed. After disinfecting the incision sites, the mice were raised in cages (2 mice/cage). Urination was induced by massaging the bladder three times a day. […] Louis, Mo.) dissolved in saline was immediately administered into injured mice via intraperitoneal injection (200 mg/kg). Saline was administered for the control. The administration was performed once a day and continued for 2 weeks. BBB test is the method to evaluate the recovery of various nerve fascicles controlling exercise function in combination, in which scores are recorded from 0 to 21. […] A normal mouse got 21 scores for that. So, the exercise function is regarded to be improved as the score got higher. […] The mice were let go freely in the box so as for the mice to be adapted to the experimental environment. […] The average of BBB test scores obtained from those five trained experimenters was considered as the final BBB score for the mouse. To eliminate personal prejudice on the test animal, the experimenters were not given any information on the mice. They only observed the mice 4 minutes every time to give scores.

ZO-1 [6] = assay: ZO-1 immunohistochemical staining of spinal cord sections after spinal cord injury; type: in vivo, mouse; details: tissue sections after spinal cord injury, vs saline
Procedure: Adult male C57BL/6 mice (20˜30 g) were anaesthetized with chloral hydrate (500 mg/kg) and T8˜T10 were exposed. The exposed T9 was subjected to contusion injury (by dropping a weight at the impact strength of 40 kd) using PSI (Precision Systems and Instrumentation) impactor. After confirming that a certain damage was given within the error range based on the data of injury level, the incision sites were sealed. After disinfecting the incision sites, the mice were raised in cages (2 mice/cage). Urination was induced by massaging the bladder three times a day. […] Louis, Mo.) dissolved in saline was immediately administered into injured mice via intraperitoneal injection (200 mg/kg). Saline was administered for the control. The administration was performed once a day and continued for 2 weeks. […] Spinal nerve was cut, followed by embedding in OCT compound, which was sectioned by using a cryostat. […] 10 μm tissue sections were reacted under the condition proposed in each primary antibody manual, followed by color development by using secondary antibodies. For immunofluorescence staining, secondary antibodies of Jackson were used. For DAB color development, Vectastatin kit (Vector) was used.

neutrophils = assay: Neutrophil infiltration into spinal cord by flow cytometry; type: in vivo, mouse; details: flow cytometry (high CD45 and Gr-1), 1 and 5 days after spinal cord injury, vs saline
Procedure: as §4

MMP-9 [7] = assay: MMP-9 activation by gelatin zymography of spinal cord tissue after spinal cord injury; type: in vivo, mouse; details: spinal cord tissue 1 day (peak time) after spinal cord injury, vs saline
Procedure: as §3

Row | Structure (SMILES) | neurotoxic effect of Aβ (NMDA receptor) | expression of CCL-3 (CCL-3) | amount of ZO-1 (ZO-1 [1]) | expression of MMP-2 (MMP-2 [2]) | expression of MMP-12 (MMP-12) | MMP-2 activity (gelatinase activity) (MMP-2 [3]) | number of macrophages in spinal cord tissues (macrophages) | anticonvulsant effects of carbamazepine, phenytoin, and ameltolide [4] | expression of MMP-9 (MMP-9 [5]) | expression of CCL-4 (CCL-4) | crossing frequency of forelegs and hind legs during walking (spinal cord injury mouse; 672 h) | BBB points, course (spinal cord injury mouse; from 1 week after spinal cord injury, compared with saline only) | BBB point (spinal cord injury mouse; ip, 200 mg/kg) | ZO-1 (immunohistochemical staining) (ZO-1 [6]) | number of neutrophils in spinal cord tissues (neutrophils) | MMP-9 activity (gelatinase activity) (MMP-9 [7])
1 | C[C@]12N[C@H](Cc3ccccc31)c1ccccc12 [MK-801] | inhibited | – | – | – | – | – | – | – | – | – | – | – | – | – | – | –
2 | CNCCC(Oc1ccc(C(F)(F)F)cc1)c1ccccc1 (stereo not shown) [fluoxetine] | – | suppressed | not reduced | significantly reduced | significantly reduced | significantly reduced | significantly reduced | increased | significantly reduced | suppressed | approximately 50% | began to increase | 10.2±0.92 | hardly reduced | significantly reduced | significantly reduced
